Test [1] concerns the target T1, ER-α in MCF-7 cells harboring ER wild type (Homo sapiens, UniProt P03372).
T1 construct: evaluated in MCF-7 cells harboring ER wild type; endogenous in cells; host or cells: MCF-7
T1 sequence (P03372 1-595): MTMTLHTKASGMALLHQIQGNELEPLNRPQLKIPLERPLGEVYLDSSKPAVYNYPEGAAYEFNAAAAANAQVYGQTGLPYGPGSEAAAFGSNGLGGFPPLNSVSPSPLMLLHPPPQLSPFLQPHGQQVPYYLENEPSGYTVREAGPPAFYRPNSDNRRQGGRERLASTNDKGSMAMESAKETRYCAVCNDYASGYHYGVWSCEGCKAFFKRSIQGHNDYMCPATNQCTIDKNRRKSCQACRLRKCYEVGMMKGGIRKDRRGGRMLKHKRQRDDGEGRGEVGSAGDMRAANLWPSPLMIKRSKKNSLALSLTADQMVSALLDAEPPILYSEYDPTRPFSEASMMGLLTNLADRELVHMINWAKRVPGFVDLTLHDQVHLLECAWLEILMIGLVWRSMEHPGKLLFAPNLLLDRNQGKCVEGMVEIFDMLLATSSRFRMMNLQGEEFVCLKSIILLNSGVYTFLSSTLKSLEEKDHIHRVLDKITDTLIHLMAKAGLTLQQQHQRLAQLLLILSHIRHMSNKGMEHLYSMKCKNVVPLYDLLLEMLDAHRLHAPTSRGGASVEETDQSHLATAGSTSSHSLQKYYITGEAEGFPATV
As to the kind of experiment: ER-α degradation (SERD) assay, MCF-7 wild type. Format: cell-based. The following applies: MCF-7 Wt, 1 nM; for % of ER-α remaining at 1 nM: 4 days, western blot, vehicle control as 100%. The method, then: Selective Estrogen Receptor Degradation (SERD) Assay:
The SERD activity for the test compounds was evaluated in MCF-7 cells harboring ER wild type, and MCF-7 cells harboring mutant ER (WT/D538G and WT/Y537S). Briefly, cells were plated in phenol red free RPMI1640 medium supplemented with 5% charcoal stripped fetal bovine serum. The seeding density was 40000 cells/well for MCF-7 WT and MCF-7 D538G and 50000 cells/well MCF-7 Y537S in a 48-well plate. Following overnight incubation, the cells were treated with varying concentrations of test compounds (final concentration: 1000 nM to 0.01 nM, 0.1% DMSO) for 4 days. The cells were lysed using PBS supplemented with 1 mM EDTA, 0.5% Triton X-100, 5 mM NaF, 6 M urea, and 1× Protease inhibitor cocktail. The lysate was analyzed for ER alpha protein using western blot. For the western blot, the cell lysate (12.5-40 μg total protein) was resolved on a 10% SDS PAGE and transferred onto a PVDF membrane. The blots were blocked using 5% skim milk powder in 0.1% PBS-T for 1 hour at room temperature, followed by co-incubation with rabbit anti-human β-actin antibody and rabbit anti-human ERα antibody for 2 hours at room temperature. The blots were subsequently probed with anti-rabbit IgG-HRP conjugate as secondary antibody for 1 hour at room temperature. The blots were developed by using West Pico Super Signal Chemiluminescence substrate and the bands were processed for densitometry analysis using Image Lab software (BioRad version 6.0.0). ERα band intensity was normalized to that housekeeping protein for respective samples. The % ER remaining was calculated by normalizing against the vehicle control (as 100%).

Test [2] relates to subcutaneous MCF7-Y537S xenografts. Put plainly: In-vivo efficacy in MCF7-Y537S mice xenografts. More on the design: species or system female athymic nude mice. To be noted: for % Tumor growth inhibition compared to vehicle group after 28 days: p.o., once daily. The method, then: In-Vivo Efficacy of Compound of Formula I and Compound of Formula Ia: […]
The efficacy of the compound of Formula I and the compound of Formula Ia were evaluated in female athymic nude mice harboring subcutaneous MCF7-Y537S xenografts. Dose formulations of the compound of Formula I and the compound of Formula Ia were prepared in Tween 80 (0.4% v/v of the total volume of suspension) in 0.5% w/v carboxymethylcellulose (CMC) and administered once daily orally for 28 days. Two perpendicular diameters of tumor were measured with digital Vernier caliper. Tumor volume (V) was calculated using the following equation: V=(a^2×b)/2, where “a” is the width of the tumor (small diameter), and “b” the length (large diameter), both in millimeters. Tumors were monitored twice weekly and compared with a vehicle treated group.

Regarding `CC1=C(c2cc(F)cc(F)c2)C(c2ccc(/C=C/CN3CC(CF)C3)cc2)Oc2ccc(O)cc21` (racemic) [Compound 2, 3-(3,5-difluorophenyl)-2-[4-[(E)-3-[3-(fluoromethyl)azetidin-1-yl]prop-1-enyl]phenyl]-4-methyl-2H-chromen-6-ol], in test [1], the “SERD activity (in words)” value was “complete loss of the SERD activity” and the “% of ER-α remaining at 1 nM” value amounted to 100%.

On to `CC1=C(c2cc(F)cc(F)c2)C(c2ccc(/C=C/CN3CCC(CF)CC3)cc2)Oc2cc(O)ccc21` (racemic) [Compound 3, 3-(3,5-difluorophenyl)-2-{4-[(E)-3-(4-fluoromethylpiperidin-1-yl)propenyl]phenyl}-4-methyl-2H-chromen-7-ol], for which, in test [1], the “SERD activity (in words)” value is “negligible SERD activity”.

On to `CC1=C(c2cc(F)cc(F)c2)C(c2ccc(/C=C/CN3CC[C@@H](CF)C3)cc2)Oc2cc(O)ccc21` (mixture of isomers) [Compound 4, 3-(3,5-difluorophenyl)-2-[4-[(E)-3-[(3R)-3-(fluoromethyl)pyrrolidin-1-yl]prop-1-enyl]phenyl]-4-methyl-2H-chromen-7-ol], for which the “SERD activity (in words)” value in test [1] is reported as “negligible SERD activity”.

As to `CC1=C(c2cc(F)cc(F)c2)C(c2ccc(/C=C/CN3CC[C@@H](C)C3)cc2)Oc2cc(O)ccc21` (mixture of isomers) [Compound 5, 3-(3,5-difluorophenyl)-4-methyl-2-[4-[(E)-3-[(3R)-3-methylpyrrolidin-1-yl]prop-1-enyl]phenyl]-2H-chromen-7-ol], the “SERD activity (in words)” value in test [1] is given as “negligible SERD activity”. With `CC1=C(c2cc(F)cc(F)c2)C(c2ccc(/C=C\CN3CC(CF)C3)cc2)Oc2cc(O)ccc21` (racemic) [Compound 6, 3-(3,5-difluorophenyl)-2-{4-[(Z)-3-(3-fluoromethylazetidin-1-yl)propenyl]phenyl}-4-methyl-2H-chromen-7-ol], in test [1], the “SERD activity (in words)” value is on record as “very negligible SERD activity” and the “% of ER-α remaining at 1 nM” value is given as 80.8%. The like results for `CC1=C(c2cc(F)cc(F)c2)C(c2ccc(C#CCN3CC(CF)C3)cc2)Oc2cc(O)ccc21` (racemic) [Compound 7, 3-(3,5-difluorophenyl)-2-[4-[3-[3-(fluoromethyl)azetidin-1-yl]prop-1-ynyl]phenyl]-4-methyl-2H-chromen-7-ol] were, in that order, “complete loss of SERD activity” and 100%.

On to `CC1=C(c2cc(F)cc(F)c2)C(c2ccc(/C=C/CN3CC(CF)C3)cc2)Oc2cc(O)ccc21` (racemic) [Formula I, 3-(3,5-difluorophenyl)-2-[4-[(E)-3-[3-(fluoromethyl)azetidin-1-yl]prop-1-enyl]phenyl]-4-methyl-2H-chromen-7-ol], for which the “% Tumor growth inhibition compared to vehicle group after 28 days” value amounted to 46% in test [2] (50 mg/kg) and 57% in test [2] (100 mg/kg). The “Tumor growth compared to the vehicle group (in words)” value in test [2] (once daily orally for 28 days) is “significant reduction in the tumor growth”.
